PubChem BioAssay (NCI)
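48-hour exposure; five concentrations; linearly interpolated endpoints. TGI marks complete inhibition of growth.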

Assays:
Test in all cases: inhibition of tumour cell growth, NCI panel, 48 h
SK-OV-3 ovarian = tested on: SK-OV-3 ovarian
M14 melanoma = tested on: M14 melanoma
PC-3 prostate = tested on: PC-3 prostate
EKVX NSCLC = tested on: EKVX NSCLC
SW-620 colon = tested on: SW-620 colon
MDA-N = tested on: MDA-N
HCT-15 colon = tested on: HCT-15 colon
786-0 renal = tested on: 786-0 renal
KM12 colon = tested on: KM12 colon
IGROV1 ovarian = tested on: IGROV1 ovarian
SF-295 CNS = tested on: SF-295 CNS
SNB-75 CNS = tested on: SNB-75 CNS

| Compound | TGI (SK-OV-3 ovarian) [µM] | TGI (M14 melanoma) [µM] | TGI (PC-3 prostate) [µM] | TGI (EKVX NSCLC) [µM] | TGI (SW-620 colon) [µM] | TGI (MDA-N) [µM] | TGI (HCT-15 colon) [µM] | TGI (786-0 renal) [µM] | TGI (KM12 colon) [µM] | TGI (IGROV1 ovarian) [µM] | TGI (SF-295 CNS) [µM] | TGI (SNB-75 CNS) [µM] |
| --- | --- | --- | --- | --- | --- | --- | --- | --- | --- | --- | --- | --- |
| C[n+]1c(-c2ccc(/C=N/Nc3ccnc(N/N=C/c4ccc(-c5cn6ccccc6[n+]5C)cc4)n3)cc2)cn2ccccc21 | > 100 | > 100 | > 100 | > 100 | > 100 | > 100 | > 100 | > 100 | > 100 | > 100 | 79.6 | > 100 |
| N#Cc1c(C#N)c(-c2ccccc2)n(/N=C\c2ccccc2)c1N | 70.2 | > 100 | 49.4 | 63.9 | > 100 | > 100 | > 100 | > 100 | > 100 | 84.7 | 65.8 | 74.2 |
| COC(=O)c1c(C#C[Si](C)(C)C)c(C#C[Si](C)(C)C)c(C#C[Si](C)(C)C)c(C#C[Si](C)(C)C)c1C(=O)OC | > 100 | > 100 | > 100 | > 100 | > 100 | > 100 | > 100 | > 100 | > 100 | > 100 | > 100 | > 100 |
| Cc1ccc([N+](=O)[O-])cc1NC(=O)C(=O)C1CCC2=C(Sc3ccccc3N2)C1=O (stereo unspecified) | > 100 | > 100 | > 100 | > 100 | > 100 | > 100 | > 100 | > 100 | > 100 | > 100 | > 100 | > 100 |
| C=C(C(=O)OC)[C@H]1CC/C(C)=C/CC/C(C)=C/CC[C@@]2(C)O[C@@H]2C1 | > 100 | 46.5 | 46.4 | 39.5 | 37.2 | 36.4 | 31.7 | 29.2 | 37.6 | 31.5 | 29.6 | > 100 |
| C=C1C(=O)O[C@H]2C3C(=C(C)CC[C@@H]12)C(=O)[C@@H]1OC31C (stereo partly specified) | 29.4 | 3.19 | 7.1 | 33.2 | 2.6 | 3.95 | 3.16 | 3.26 | 20.2 | 11.8 | 27.3 | 6.57 |
| O=C(NCc1cccnc1)C(=O)NCc1cccnc1 | > 100 | > 100 | > 100 | > 100 | > 100 | > 100 | > 100 | > 100 | > 100 | > 100 | > 100 | > 100 |
| COc1cc(-c2[o+]c3cc(O)cc(OC4OC(CO)C(O)C(O)C4O)c3cc2OC2OC(CO)C(O)C(O)C2O)cc(OC)c1O (stereo unspecified) | > 100 | > 100 | > 100 | > 100 | > 100 | > 100 | > 100 | > 100 | > 100 | > 100 | > 100 | > 100 |
| O=C(NC/C=C/Br)NC1CCNc2ccccc21 (stereo unspecified) | > 100 | 34.5 | > 100 | 92.6 | > 100 | > 100 | > 100 | 81.9 | > 100 | > 100 | > 100 | > 100 |
| O=C(/C=C/c1ccccc1)CCc1c(O)c2ccccc2oc1=O | > 100 | > 100 | > 100 | > 100 | > 100 | > 100 | > 100 | > 100 | > 100 | > 100 | > 100 | > 100 |
| COc1cc(S(=O)(=O)N/N=C/c2cc(Br)c(O)c(OC)c2)c(OC)cc1NC(C)=O | > 100 | > 100 | > 100 | > 100 | > 100 | > 100 | > 100 | 66.5 | > 100 | > 100 | > 100 | > 100 |
| CSC1NNC2(C(=O)N1)c1ccccc1-c1ccccc12 (stereo unspecified) | > 10 | > 10 | > 10 | > 10 | > 10 | > 10 | > 10 | > 10 | > 10 | > 10 | > 10 | > 10 |
| CCCCCCCCC[n+]1cccc(C2C(C(=O)OCC)=C(C)NC(C)=C2C(=O)OCC)c1 | 26.5 | 7.32 | 15.2 | 27.8 | 30.5 | 4.39 | 32.7 | 26.9 | 4.21 | 5.47 | 33.9 | 11.6 |
| c1ccc(CNc2ncnc3n[nH]nc23)cc1 | > 100 | > 100 | > 100 | > 100 | > 100 | > 100 | > 100 | > 100 | > 100 | > 100 | > 100 | > 100 |
| COC(=O)C1=C(C)NC2(C)OC(C)(O)C(C(C)=O)C12C(C)=O (stereo unspecified) | 85.8 | > 100 | > 100 | > 100 | > 100 | > 100 | > 100 | > 100 | > 100 | > 100 | > 100 | > 100 |
| Cc1nnc(CC#N)n1NC(=O)CC#N | > 100 | > 100 | > 100 | > 100 | > 100 | > 100 | > 100 | > 100 | > 100 | > 100 | > 100 | > 100 |
| COC(=O)/C=C\C(C#N)(C#N)N=Cc1ccsc1 | 31.3 | 8.23 | 25.4 | 12.5 | 3.34 | 8.66 | 2.9 | 3.02 | 28.9 | 20.9 | 27.5 | 29.5 |
| CC1(C)O[C@@H](CP(c2cccc3ccccc23)c2cccc3ccccc23)[C@H](CP(c2cccc3ccccc23)c2cccc3ccccc23)O1 | > 100 | > 100 | > 100 | > 100 | > 100 | > 100 | > 100 | > 100 | > 100 | > 100 | > 100 | > 100 |
